# Data: patent US20170191058A1, “PERFORIN 2 DEFENSE AGAINST INVASIVE AND MULTIDRUG RESISTANT PATHOGENS” (priority 2012, published 2017)
# “Also recorded” adds a separate entry of the source. Residues, ends and D or L forms follow the SMILES beside them. *: point of attachment. Cbz = O=C(OCc1ccccc1)*
# B1: IL-1α: recombinant murine IL-1α (protein, UniProt P01582 115-270, looked up)
# Interleukin-1 alpha: SAPYTYQSDLRYKLMKLVRQKFVMNDSLNQTIYQDVDKHYLSTTWLNDLQQEVKFDMYAYSSGGDDSKYPVTLKISDSQLFVSAQGEDQPVLLKELPETPKLITGSETDLIFFWKSINSKNYFTSAAYPELFIATKEQSRVHLARGLPSMTDFQIS
# Columns and labels:
# Salmonella = assay: Gentamycin protection assay: intracellular Salmonella in mEF; format: cell-based, Salmonella typhimurium
# Procedure: Mouse rectal carcinoma CMT-93 was transiently transfected with a P-2 siRNA pool, or with P-2-RFP. Scramble siRNA or RFP were also transfected and analyzed to serve as controls for P-2 siRNA and P-2-RFP respectively. All transfections were performed 24 hours prior to infection. 14 hours prior to infection, cells were incubated with 100 U/ml of species specific IFN-γ. At indicated time points after infection, cells were lysed and plated for CFU analysis. (FIGS. 16A-16D) mEF were transfected with P-2siRNA and complemented with siRNA resistant P-2-RFP cDNA 24 hours prior to infection. 14 hours prior to infection, interferon-γ was added. mEF were infected with late log phase S. typhimurium. At indicated time points mEFs were lysed and analyzed for colony forming units. […]
# S. typhimurium strain LT2Z), Mycobacterium smegmatis, methicillin-resistant Staphylococcus aureus, and E. coli strain K12 were grown from glycerol stocks at 37° C. with shaking for 24 hours in Luria broth (S. typhimurium, S. aureus, and E. coli) or Middlebrook 7H9 broth (M. smegmatis). […] At indicated time points, cells were washed with PBS, lysed using 1% Igepal in ddH2O, diluted and plated in technical triplicate on LB agar plates (S. typhimurium, S. aureus, E. coli) or Middlebrook 7H11 plates (M. smegmatis) and CFU determined after sufficient colony growth.
# S. typhimurium = assay: Gentamycin protection assay: intracellular S. typhimurium in peritoneal macrophages (PEM); format: cell-based, Salmonella typhimurium; details: for additional effect on intracellular replication/killing when combined with P-2 knockdown: inhibitor plus P-2 siRNA knock down; for effect on intracellular killing of Salmonellae: single effector blocked, 1-5 h post-infection
# Procedure: (§1) Gentamicin protection assay: S. typhimurium strain LT2Z, Mycobacterium avium, Mycobacterium smegmatis (ATCC), methicllin resistant Staphylococcus aureus and K12 E. coli were grown from glycerol stocks at 37° C. with shaking for 16-18 hr in Luria broth (LB) (S. typhimurium, S. aureus, and E. coli) or Middlebrook 7H9 broth (Mycobacteria) prior to infection. For Salmonella, the culture was then diluted 1:33 in LB and grown for another 3 hours to induce invasive phenotype. Macrophages or microglial cells were plated (5×10^5 cells/well of a 12 well plate) and stimulated overnight with LPS (Ing/ml) and IFN-γ (100 U/ml). Cells were infected the next day at indicated MOI for 30 minutes (S. typhimurium,) or 1 hour (all other bacteria) in 37° C., 5% CO2 incubator. Cells were washed twice with PBS and fresh medium containing 50 μg/ml gentamicin was added. After 2 hours the concentration of gentamicin was lowered to 5 μg/ml. At the indicated timepoints after adding gentamicin, the cells were washed with PBS, lysed using 0.1% Triton-X in water, diluted and plated in triplicate on agar plates and CFU determined.
# The current understanding of bactericidal responses in macrophages is that they are mediated by oxidative mechanisms, such as ROS and NO within the phagosome, and by phagosome-lysosome fusion. To assess the role of P-2 in comparison to ROS and NO in intracellular killing of bacteria, each of the bactericidal effectors was blocked individually or in combination with P-2, and intracellular bacterial survival in peritoneal macrophages (PEM) measured between 1 and 5 hours post-infection utilizing the gentamycin protection assay (FIGS. 1A-1C). Gentamycin is membrane impermeable and present only in the extracellular medium. Inhibition of ROS, NO or P-2 individually had different effects on different bacteria. Using S. typhimurium, ˜90% bacteria present intracellularly in PEM at 1 h were dead at 5 h in the absence of inhibitors (˜10% survival, FIG. 1 A). […] In other words without P-2 ROS and NO have little effect on killing of Salmonellae.
# Here we analyze the bactericidal efficiency of each effector pathway and their synergism. We blocked each effector individually and determined intracellular survival and replication or killing of intracellular S. typhimurium and M. smegmatis. These experiments were carried out with intestinal epithelial cells (CMT93) (not shown) and in IFN-γ activated PEM (FIG. 27e) with virtually identical results. First, we ascertained that IFN-γ activated and LPS stimulated PEM produced ROS and NO and that this production is not affected by P-2 siRNA knock down. We also ascertained that the ROS and NO inhibitors used were specific and active in blocking ROS or NO (not shown). PEM are able to kill about 90% of intracellular Salmonella in the first four hours after infection when all three effectors were active in scramble siRNA transfected cells (FIG. 27e, solid lines). […] M. smegmatis is more resistant to killing by bactericidal effectors within 4 hours. […] Blockade of ROS or NO without P-2 knock down had only limited, non-significant effects on bactericidal activity against Mycobacteria.
# Intracellular bactericidal activity was adapted from. In brief, bacteria were grown at 37° C. with shaking for 16-18 hours in Luria broth (LB) (S. typhimurium, S. aureus, and E. coli) or 24 hours in Middlebrook 7H9 broth (Mycobacteria) prior to infection. For S. typhimurium, E. coli, and S. aureus the culture was then diluted 1:33 in LB and grown for another 3 hours to allow the bacteria to enter log phase and for Salmonella to induce the invasive phenotype. Eukaryotic cells were transfected following Lonza's optimized protocol for the respective cells, and plated into 12-well plates post-transfection. […]
# [1] = test system: E. coli, S. typhimurium, M. smegmatis; assay: Gentamycin protection assay in PEM infected with E. coli, S. typhimurium or M. smegmatis (FIG. 1); format: cell-based; details: 10 mM NAC, 10 mM L-NAME or pool of 3 siRNAs, CFU at 1 h and 5 h
# Procedure: The gentamycin protection assay was carried out as in FIGS. 2A-2F. 24 h after transfection with P-2 siRNA or scrambled siRNA. PEM were infected with (FIG. 1A) E. coli, (FIG. 1B) S. typhimurium, or (FIG. 1C) M. smegmatis. Inhibitors were added 1 h before infection and maintained throughout assay. Cells were lysed and CFU determined at 1 h and 5 h post-infection. Data shown are representative of 3 experiments with 2 replicates; asterisks denote significance (p<0.05) based on students t-test.
# as §1, with “Cells were infected the next day at indicated MOI for 30 minutes (S. typhimurium,) or 1 hour (all other bacteria) in 37° C., 5% CO2 incubator. Cells were washed twice with PBS and fresh medium containing 50 μg/ml gentamicin was added. After 2 hours the concentration of gentamicin was lowered to 5 μg/ml.” left out
# [2] = test system: E. coli, S. typhimurium and M. smegmatis; assay: Bacterial growth in medium with ROS/NO inhibitors, no PEM (OD 600); format: cell-based; details: 10 mM, IMDM+10% FBS, 5 hours
# Procedure: E. coli, S. typhimurium and M. smegmatis were grown in IMDM+10% FBS in the presence or absence of NAC (10 mM) or L-NAME (10 mM) for 5 hours. Bacterial growth was measured by spectrophotometer at an OD of 600 nm at 1 and 4 hours after addition of inhibitors to the culture medium.
# P-2 protein = assay: Western blot of P-2 protein in interferon-activated mEF; format: cell-based, murine; details: IFN-γ 14 hours then 1 hour MG-132
# Procedure: (§2) Murine embryonic fibroblasts (FIG. 14A), a rectal cancer cell line (FIG. 14B), myoblast cell line (FIG. 14C), and an ovarian cell line (FIG. 14D) were treated for 14 hours with 100 U/ml interferon-α, interferon-β, and interferon-γ treated. LPS was treated at 1 ng/ml; IL-1α at 10 U/ml, IL-1β at 1 ng/ml, and TNFα at 20 ng/mL. A human embryonic kidney cell line (FIG. 14E) and cervical cancer cell line (FIG. 14F) were treated with human IFN-α at 150 U/ml, IFN-β and IFN-γ at 100 U/ml. The BV2 microglial cell line was stimulated with 100 U/ml of murine Interferon-γ for 14 hours to upregulate P-2 mRNA and protein. mEF treated with IFN-γ for 14 hours (mEF), or IFN-γ for 14 hours followed by 1 hour of treatment with […] MG-132 (mEF+MG132) (FIG. 14G). Human primary keratinocytes were analyzed for protein expression with indicated recombinant human IFN treatment (FIG. 14H). mEF were treated with E. coli or M. smegmatis. At indicated time points, cells were harvested and analyzed for P-2 mRNA and compared to uninfected controls by TAQMAN™ PCR. (FIG. 14I) mEF were either not stimulated, or stimulated for 14 hours with IFN-γ at 100 U/ml. After stimulation, mEF were infected with M. smegmatis and analyzed for colony forming units at indicated time points.
# Rabbit anti-Mpeg1 polyclonal antibody was obtained from Abcam and used for western blot analysis.
# P-2 mRNA = P-2 mRNA expression in mEF by TAQMAN PCR after cytokine treatment; format: cell-based, murine; details: added singly, 14 hours
# Procedure: as §2
# Recombinant murine IL-1α, IL-1β, TNFα, IFN-γ, IFN-α, IFN-β recombinant human IFN-γ, IFN-β were purchased from preprotech. Recombant human IFN-α was purchased from R&D systems. Murine […] was supplemented at 10 U/mL where indicated. Murine IL-1β was supplemented at 1 ng/ml. Murine TNFα was supplemented at 20 ng/ml. Murine IFN-α, IFN-β and IFN-γ was supplemented with 100 U/ml. Human IFN-α was supplemented where indicated in at a concentration of 150 U/ml where indicated. Human IFN-β and IFN-γ was supplemented at a concentration of 100 U/ml. LPS was added at a concentration of 1 ng/ml.
# RNA was extracted from cells following RNeasy (Qiagen) instructions. One μg of RNA was converted to cDNA using QuantiTect Reverse Transcription kit (Qiagen) following supplier's protocol. qRT-PCR was performed using TAQMAN® Gene Expression Assays (Applied Biosystems) for murine Mpeg1 and GAPDH, with the later serving as a housekeeping control gene. For human tissues, human Mpeg1 and GapDH probes were utilized. All assays were performed on the Applied Biosystems 7300 PCR platform.
molecule,measurement,setting,value
"Cn1cnc(N)c2ncnc1-2 [3-MA, 3-methyl-adenine]",effect on intracellular Salmonella replication in mEF,Salmonella,permits Salmonella replication; also recorded: allows replication of Salmonella
"COC(=O)[C@@H](N)CCCN=C(N)N[N+](=O)[O-].Cl [L-NAME, N^G-nitro-L-arginine-methyl ester hydrochloride]",additional effect on intracellular replication/killing when combined with P-2 knockdown,S. typhimurium; hydrochloride,did not further increase intracellular replication
same,additional effect on intracellular replication/killing when combined with P-2 knockdown,"S. typhimurium; listed as NAME, hydrochloride",no further effect
same,effect on intracellular killing of Salmonellae,S. typhimurium; hydrochloride,slows down the killing activity
same,intracellular killing,[1],Intracellular killing was inhibited
same,effect on bacterial growth in the absence of PEM,[2],do not directly inhibit bacterial growth
CC(C)C[C@@H](C=O)NC(=O)[C@H](CC(C)C)NC(=O)[C@H](CC(C)C)NC(=O)OCc1ccccc1 [MG132] (Cbz-Leu-Leu-Leu-aldehyde),detection of P-2 protein by Western blot,P-2 protein,P-2 protein is not detected by Western blot analysis of interferon-activated mEF unless the proteasome inhibitor MG132 is added
"CC(=O)N[C@@H](CS)C(=O)O [NAC, N-Acetylcysteine]",survival of Salmonellae at 5 h compared to 1 h levels,"S. typhimurium; inhibitor 10 mM, added 1 h before infection, ~10% survival without inhibitors",~80%
same,additional effect on intracellular replication/killing when combined with P-2 knockdown,S. typhimurium,did not further increase intracellular replication; also recorded: no further effect
same,effect on intracellular killing of Salmonellae,S. typhimurium,slows down the killing activity
same,intracellular killing,[1],Intracellular killing was inhibited
same,effect on bacterial growth in the absence of PEM,[2],do not directly inhibit bacterial growth
IFNα,P-2 mRNA induction in mEF,P-2 mRNA,up-regulates P-2 mRNA
TNFα,P-2 mRNA induction in mEF,P-2 mRNA,do not induce P-2 mRNA
B1,P-2 mRNA induction in mEF,P-2 mRNA,do not induce P-2 mRNA
